Experimental data as given in paper PMC6212833 (mBio, 2018).
Where two headings read alike, the source gives them in different places.

Tests used:
[1] = tested on: H4 human neuroglioma cells; experiment: Secondary screening dose response, toxicity to H4 cells; format: cell-based; conditions: 72 h, approximated from dose-response curves
[2] = tested on: B. mandrillaris trophozoites; experiment: Secondary screening dose response, B. mandrillaris trophozoites; format: cell-based, Balamuthia mandrillaris; conditions: 72 h, read-out: B. mandrillaris IC50
Procedure: (§1) Secondary screening of hit compounds consisted of dose-response experiments to measure the toxicity of each compound to B. mandrillaris trophozoites, HFF-1 human fibroblast cells, and H4 human neuroglioma cells. Four 384-well plates were prepared prior to addition of drug as follows: one opaque plate (Corning) seeded with 3,000 HFF-1 cells per well in 60 µl complete media, one opaque plate seeded with 2,000 H4 cells per well in 60 µl complete media, one opaque plate containing 30 µl axenic media, and one clear plate (Corning) containing 30 µl axenic media. Opaque plates were used to measure the viability of trophozoites in the CTG assay, and clear plates were used for microscopic examination of cyst formation. HFF-1 and H4 plates were seeded 24 h prior to drug addition. The selected primary screen hits were added from 10 mM DMSO stocks into wells of all four test plates to reach final concentrations ranging from 0.06 µM to 30 µM (10 concentrations, 2-fold serial dilution). Negative-control wells received concentrations of DMSO corresponding to the amount of DMSO in each tested drug well (reaching a maximum of 0.3% DMSO). B. mandrillaris trophozoites were resuspended in axenic media and added to the plates containing drug dilutions in axenic media at a density of 3,000 amoebae per well in a final volume of 60 µl media. All plates were incubated for 72 h. Throughout the incubation period, the clear-bottom B. mandrillaris plate was monitored for large-scale changes to population encystment in response to drug treatment. After the 72-h incubation, 30 µl of CTG reagent was added to all wells of the opaque assay plates and luminescence was measured with a Promega GloMax-Multi+ plate reader at 2, 4, and 8 h after CTG addition.

[3] = tested on: HFF-1 human fibroblast cells; experiment: Secondary screening dose response, toxicity to HFF-1 cells; format: cell-based; conditions: 72 h, approximated from dose-response curves, read-out: HFF1 IC50
Procedure: as §1

[4] = tested on: B. mandrillaris trophozoites; experiment: microbe, parasite or virus in culture; format: cell-based, Balamuthia mandrillaris; conditions: for inhibition at 20 µM: Balamuthia mandrillaris; for % Inhibition: 20 µM
[5] = tested on: B. mandrillaris trophozoites; experiment: Nitroxoline structure-activity relationship dose response (CellTiter Glo); format: cell-based, Balamuthia mandrillaris; conditions: for IC50: 72 h; for activity against B. mandrillaris: SAR experiments
B. mandrillaris = tested on: B. mandrillaris; design: method as in PMID 15347743, PMID 23869955, PMID 16579814; conditions: in vitro; cited from earlier work
[6] = 72 h, relative to positive and negative controls
[7] = Balamuthia mandrillaris, 8-point dose response in triplicate, read-out: IC50
[8] = Balamuthia mandrillaris, 8-point dose response in triplicate
[9] = 8-point dose response in triplicate, read-out: IC50

## CC#C[C@]1(O)CC[C@H]2[C@@H]3CCC4=CC(=O)CCC4=C3[C@@H](c3ccc(N(C)C)cc3)C[C@@]21C [Mifepristone]
[1]; Homo sapiens
  IC50: > 30 µM
[2]; Balamuthia mandrillaris
  IC50: > 30 µM
[3]; Homo sapiens, HFF-1
  IC50: > 30 µM
[4]; 72 h
  inhibition at 20 µM: 43%

## NC(=O)c1ccc[n+]([C@@H]2O[C@H](COP(=O)([O-])OP(=O)(O)OC[C@H]3O[C@@H](n4cnc5c(N)ncnc54)[C@H](O)[C@@H]3O)[C@@H](O)[C@H]2O)c1 [Nadide]
[4]; 72 h
  inhibition at 20 µM: 87%

## Cc1c(NC(=O)c2cccnc2)c(=O)n(-c2ccccc2)n1C [Nifenazone]
[1]; Homo sapiens
  IC50: > 30 µM
[2]; Balamuthia mandrillaris
  IC50: > 30 µM
[3]; Homo sapiens, HFF-1
  IC50: > 30 µM
[4]; 72 h
  inhibition at 20 µM: 70%

## CC(=O)[O][Hg][c]1ccccc1 [Phenylmercuric Acetate]
[4]; [6]
  % Inhibition: 107%

## CNC(=C[N+](=O)[O-])NCCSCc1ccc(CN(C)C)o1 [Ranitidine]
[1]; Homo sapiens
  IC50: > 30 µM
[2]; Balamuthia mandrillaris
  IC50: > 30 µM
[3]; Homo sapiens, HFF-1
  IC50: > 30 µM
[4]; 72 h
  inhibition at 20 µM: 68%

## Oc1cccc2cccnc12 [compound 2, 8-Hydroxyquinoline]
[5]; [7]
  IC50: 30.5 µM

## O=[N+]([O-])c1cccc2ncccc12 [compound 3, 5-Nitroquinoline]
[5]; [7]
  IC50: 82.7 µM

## Oc1ccc(Br)c2cccnc12 [compound 6, 5-Bromo-8-hydroxyquinoline]
[5]; [7]
  IC50: 48.9 µM

## Cc1ccc(O)c2ncccc12 [compound 7, 5-Methylquinolin-8-ol]
[5]; [7]
  IC50: 19.9 µM

## O=S(=O)(O)c1ccc(O)c2ncccc12 [compound 13, 8-Hydroxy-5-quinolinesulfonic acid]
[5]; 8-point dose response in triplicate, listed as 8-Hydroxy-5-quinolinesulfonic acid [13]
  IC50: 338 µM
[5]; [8]
  IC50: 338 µM
[5]
  activity against B. mandrillaris: inactive

## c1cnc2c(c1)ccc1cccnc12 [compound 14, 1,10-Phenanthroline]
[5]; [8]
  IC50: 15.9 µM
[5]
  activity against B. mandrillaris: demonstrated activity against B. mandrillaris

## [O-][n+]1cccc2cccc(O)c21 [compound 16, 8-Quinolinol N-oxide]
[5]; [9]
  IC50: 165 µM

## CCOc1ccc([N+](=O)[O-])c2cccnc12 [compound 17, 8-Ethoxy-5-nitroquinoline]
[5]; [9]
  IC50: 434 µM

## O=C(O)c1ccc2ccccc2n1 [compound 18, 2-Quinolinecarboxylic acid]
[5]; Balamuthia mandrillaris
  IC50: 884 µM

## O=[N+]([O-])c1cnc2ccccc2c1O [compound 19, 3-Nitro-4-quinolinol]
[5]; [8]
  IC50: 1320 µM

## OC(Cn1cncn1)(Cn1cncn1)c1ccc(F)cc1F [fluconazole]
B. mandrillaris
  inhibition of amoebic growth: little to no inhibition

## Nc1[nH]c(=O)ncc1F [flucytosine]
B. mandrillaris
  inhibition of amoebic growth: little to no inhibition

## Nc1ccc(S(=O)(=O)Nc2ncccn2)cc1 [sulfadiazine]
B. mandrillaris
  inhibition of amoebic growth: little to no inhibition

## C[C@@H](c1ncncc1F)[C@](O)(Cn1cncn1)c1ccc(F)cc1F [voriconazole]
B. mandrillaris
  inhibition of amoebic growth: amoebicidal or amoebistatic activity

## Demecarium Bromide
[4]; [6]
  % Inhibition: 60%

## Plicamycin
[1]
  IC50: < 0.06 µM
[2]; approximated from dose-response curves
  IC50: > 30 µM
[3]
  IC50: < 0.06 µM
[4]
  % Inhibition: 45%
